These results are taken from patent publication US4371463A, “Enzyme-resistant opiate pentapeptides” (priority 1977, dated 1983).

Square brackets hold non-standard residues; d marks the D form. Ends that are not written are not given here. Peptide text beside a SMILES is read from it.

The target in one data set is opiate receptors. Briefly: Opiate receptor affinity by inhibition of stereospecific 3H-naloxone binding to rat brain membranes. The settings on record: for IC50: rat brain membranes, 1 h at 0° C., 100 mM NaCl, 1.3 nM 3H-naloxone, read-out: Opiate Receptor Affinity (concentration causing 50% inhibition of stereospecific 3H-naloxone binding); for opiate receptor affinity, fold greater than the corresponding L-Ala2 isomer: vs L-Ala2-Met-enkephalin-amide. The protocol:
Male rats weighing 180-200 g (Sprague-Dawley) were decapitated and each brain with the cerebellum removed was homogenized in 150 mls of ice-cold standard buffer (0.05 M Tris-HCl, pH 7.0 at 25° C.). After refrigerated centrifugation at 12,000×g, the membranes were reconstituted in the standard buffer. After recentrifugation, each brain was suspended in 10 mls of the standard buffer. Aliquots of the freshly prepared membrane preparation (100 μl) were incubated for one hour at 0° C. with various concentrations of the pentapeptide and 100 mM NaCl in a final volume of 0.5 ml with ^3 H-naloxane (New England Nuclear, 34 Ci/mmole) in a concentration of 1.3 nM (20,000 cpm). Incubation was begun with the addition of brain membranes, which were added last. After rapid filtration and washing with two 7 ml portions of ice-cold standard buffer, membrane-laden filters were transferred and counted at 40-45% efficiency at least six hours after shaking with detergent scintillation fluor (Aquasol, New England Nuclear). Control incubations containing levallorphan (100 nM) or dextrallorphan (100 nM) were included. Stereospecific binding (^3 H-naloxone bound in the presence of levallorphan subtracted from binding in the presence of dextrallorphan) represented 85-90% of the total bound naloxane in all experiments. Control values in all experiments ranged between 2000-2800 cpm. From a plot of the percent inhibition of stereospecific ^3 H-naloxane binding as a function of pentapeptide concentration, the opiate receptor affinity of the pentapeptide was determined as that concentration of pentapeptide, in μM, causing 50% inhibition of stereospecific ^3 H-naloxone binding. In this test, the lower the numerical value obtained, the higher is the opiate receptor affinity of the pentapeptide.

A further data set deals with rats. Description: Analgesia after intracerebral microinjection in rats (tail-flick, flinch-jump, limb pinch). It is filed as in vivo, rat. On the procedure: Sprague-Dawley rats were stereotaxically implanted with chronic indwelling cannulae guides constructed from 23 gauge TW stainless steel tubing and fitted with stilettes of corresponding length. […] Testing was initiated approximately one week following surgery. The compounds being assessed for analgesic activity were dissolved in pyrogen-free water and microinjected at various dose levels in a volume 1 μl through 30 gauge injectors which protruded 2 mm past the guide cannulae tips.
Analgesia was assessed by the D'Amour and Smith "tail-flick" procedure, the "flinch-jump" test, and by subjectively evaluating an animal's reaction to pinches of the limbs with forceps. In the "tail-flick" test, a high intensity light was focused on a rat's tail which had been blackened with a felt-tip pen, and the time that it took an animal to remove its tail from this radiant heat was measured to the nearest 0.5 second. In the "flinch-jump" test, AC shock intensity at which an animal jumped and squealed was quantified 15 minutes after an injection (immediately after testing in the tail-flick test). Reactions to limb pinches were also noted at this time. Baseline measures were always taken approximately one hour prior to injection. All animals were tested at 1, 5, 15, 30, 60, 120, and 180 minutes after injection and then at one hour intervals until their response latencies had recovered to baseline levels.

Data set [1] can be described thus: Preincubation with rat brain membranes under physiological conditions at 37° C., then residual opiate receptor inhibitory activity. It is filed as in vitro ADME.
The test system of a further data set is rat. As to conditions: cited from earlier work; for duration of analgesia: injected directly into active brain sites.
The test system of data set [2] is rat brain opiate receptors. The settings on record: cited from earlier work.
Setting [3] is: 5-10 μg microinjected into rat brain.

On to `CSCC[C@H](NC(=O)[C@H](Cc1ccccc1)NC(=O)CNC(=O)[C@@H](C)NC(=O)[C@@H](N)Cc1ccc(O)cc1)C(N)=O` [D-Ala^2 -Met-enkephalin-amide], for which, at opiate receptors, the IC50 amounted to 400 nM and the “opiate receptor affinity, fold greater than the corresponding L-Ala2 isomer” value turned out to be 10 fold. For the same compound, in the data set with rats (10 μg microinjected, 1 and 2 hours after injection), the “intensity of analgesia compared with 5 μg of morphine” value is reported as “not as intense”. Moreover, the “persistence of analgesia compared with 5 μg of morphine” value with rats (10 μg microinjected, rat) is given as “about the same length of time”. In the data set on rats (setting [3]), the “analgesic effects compared with comparable dose levels of morphine” value was “almost as potent and long-lasting”; the “duration of action (analgesia)” value is listed as “several hours”. Further, in the data set with rats (5-10 μg microinjected, periaqueductal gray, rat), the analgesia elicited entry is “quite effective in eliciting analgesia”. The “persistence of analgesia after injection” value with rats (5-10 μg microinjected, rat) is listed as “three”. Besides, the “effect of naloxone preinjection on analgesia” value in the data set on rats (naloxone 2 mg/kg i.p. 15 minutes before 10 μg microinjection) is on record as “almost complete reversal of analgesia”.
For `CSCC[C@H](NC(=O)[C@H](Cc1ccccc1)NC(=O)CNC(=O)[C@@H](C)NC(=O)[C@@H](N)Cc1ccc(O)cc1)C(=O)O` [D-Ala^2 -Met-enkephalin], on opiate receptors, the IC50 turned out to be 400 nM and the “opiate receptor affinity, fold greater than the corresponding L-Ala2 isomer” value is 10 fold. Besides, in the data set with rats (setting [3]), the “duration of action (analgesia)” value is “several hours”. Besides, the “analgesia results compared with D-Ala2-Met-enkephalin-amide” value in the data set with rats (microinjected, rat) is “quite similar”. Further, the “analgesic effects compared with comparable dose levels of morphine” value in the data set on rats (rat, in vivo) was “almost as potent and long-lasting”.
Turning to `CSCC[C@H](NC(=O)[C@H](Cc1ccccc1)NC(=O)CNC(=O)[C@@H](Cc1ccccc1)NC(=O)[C@@H](N)Cc1ccc(O)cc1)C(N)=O` [D-Phe^2 -Met-enkephalin-amide] (H-Y[dF]GFM-NH2), the IC50 on opiate receptors turned out to be 2000 nM.
With `CSCC[C@H](NC(=O)[C@H](Cc1ccccc1)NC(=O)CNC(=O)[C@H](NC(=O)[C@@H](N)Cc1ccc(O)cc1)C(C)C)C(N)=O` [D-Val^2 -Met-enkephalin-amide] (H-Y[dV]GFM-NH2), the IC50 at opiate receptors turned out to be 4000 nM. For the same compound, the “dose level needed to produce the same analgesic response as 5 μg of D-Ala2-Met-enkephalin-amide” value in the data set with rats (microinjected, rat) was 20 µg.
As for `CSCC[C@H](NC(=O)[C@H](Cc1ccccc1)NC(=O)CNC(=O)[C@H](C)NC(=O)[C@@H](N)Cc1ccc(O)cc1)C(N)=O` [L-Ala^2 -Met-enkephalin-amide, reference compound], the IC50 on opiate receptors was determined as 4000 nM. Further, in data set [1], the “preincubation time after which complete loss of opiate receptor inhibitory activity resulted” value stood at 60 min. In the data set with rats (10 μg microinjected, rat), the analgesia elicited result is reported as “failed to elicit any significant analgesia”.
Turning to `CC(C)C[C@H](NC(=O)[C@H](Cc1ccccc1)NC(=O)CNC(=O)CNC(=O)[C@@H](N)Cc1ccc(O)cc1)C(=O)O` [Leu-enkephalin, H-L-Tyr-Gly-Gly-L-Phe-L-Leu-OH, reference compound], the IC50 on opiate receptors was found to be 700 nM.
Turning to `CSCC[C@H](NC(=O)[C@H](Cc1ccccc1)NC(=O)CNC(=O)CNC(=O)[C@@H](N)Cc1ccc(O)cc1)C(=O)O` [Met-enkephalin, H-L-Tyr-Gly-Gly-L-Phe-L-Met-OH], the IC50 on opiate receptors came out at 200 nM. Further, the duration of analgesia entry in the data set with rat is “several minutes”. In addition, in the data set on rat (rat, in vivo), the “analgesic potency, fold weaker than morphine” value is “at least 50 fold”. In data set [1], the “preincubation time after which complete loss of opiate receptor inhibitory activity resulted” value came to 20 min. In the data set on rats (120 μg microinjected, rat), the analgesia elicited result is “relatively low level of analgesia” and the “time after injection by which analgesia returned to pre-drug level” value is at most 5 min. Also, in data set [2], the “affinity for rat brain opiate receptors relative to morphine” value is listed as “about half”.
As to `CSCC[C@H](NC(=O)[C@H](Cc1ccccc1)NC(=O)CNC(=O)CN(C)C(=O)[C@@H](N)Cc1ccc(O)cc1)C(N)=O` [Sar^2 -Met-enkephalin-amide], at opiate receptors, the IC50 turned out to be 8000 nM.
Consider `CN1CC[C@]23c4c5ccc(O)c4O[C@H]2[C@@H](O)C=C[C@H]3[C@H]1C5` [morphine], for which the duration of analgesia entry with rat is reported as “several hours”.
With “YPGFM-NH2 [L-Pro^2 -Met-enkephalin-amide]”, the IC50 at opiate receptors stood at 90000 nM.
